Two molecules from patent publication US20220387602A1, “BIFUNCTIONAL DEGRADERS AND THEIR METHODS OF USE” (NOVARTIS AG, priority 2019, published 2022) can be followed below.

The target in one assay is T1, YES1 (Homo sapiens, UniProt P07947).
T1 construct: EGFP (after a Leu that replaces the STOP codon); expressed in transfected cells; host or cells: HEK293A (Invitrogen R70507), lentiviral transduction
Description: YES1-GFP protein abundance flow cytometry assay in HEK293A. Format: cell-based. The note with it: for YES1 Amax: % protein remaining at the concentration of maximum degradation; for DC50: HEK293A YES1-GFP sensor cells, 24 h. The protocol:
(§1) Degradation of BTK, CSK, ABL2, EPHA4 and YES1 was measured in HEK293A cells (Invitrogen R70507) expressing either BTK-GFP and RFP, CSK-GFP and mCherry, GFP-ABL2 and mCherry, EPHA4-GFP and mCherry, or YES1-GFP and mCherry from a stably integrated bicistronic BTK-GFP-iresRFP, CSK-GFP-CHYSEL-mCherry, GFP-ABL2-CHYSEL-mCherry, EPHA4-GFP-CHYSEL-mCherry, or YES1-GFP-CHYSEL-mCherry construct, respectively. Reduction of the GFP signal measured by flow cytometry served as readout for BTK, CSK, ABL2, EPHA4 and YES1 degradation after degrader treatment.
(§2) 293A BTK-GFP-Ires-RFP, CSK-GFP-CHYSEL-mCherry, GFP-ABL2-CHYSEL-mCherry, EPHA4-GFP-CHYSEL-mCherry, or YES1-GFP-CHYSEL-mCherry sensor cells were generated by lentiviral vector transduction using the pLenti6-BTK-GFP-Ires-RFP, pLenti6-mCherryCHYSEL-EGFP-ABL2, pLenti6-CSK-GFP-CHYSEL-mCherry, pLenti6-EPHA4-GFP-CHYSEL-mCherry or pLenti6-YES1-GFP-CHYSEL-mCherry sensor construct described before. Lentiviral particles were produced in HEK293FT cells (Invitrogen R70007) by co-transfection of 500 ng pLenti6-BTK-GFP-Ires-RFP or pLenti6-IKZF3-GFP-Ires-RFP, 500 ng delta8.71 and 200 ng pVSVG diluted in 100 μL OptiMEM serum free medium (Invitrogen #11058-021) that was mixed after 5 min preincubation with 3 μL of Lipofectamine2000 (Invitrogen #11668-019) in 97 μL OptiMEM serum free medium. The mix was incubated for another 20 min at RT and then added on 1 mL of a freshly prepared suspension of HEK293FT cells in a well of a 6-well plate (concentration 1.2×10^6 cells/mL). 1 day after transfection, the medium was replaced with 1.5 mL of complete growth medium (DMEM high Glucose+10% FCS+1% L-Glutamine+1% NEAA+1% NaPyr.). 48 h post transfection supernatant containing viral transducing particles was collected and frozen at −80° C.
(§3) 2 days before transduction with viral particles 1×10^5 HEK293A cells (Invitrogen R70507) were seeded in 2 mL growth medium in a well of a 6-well plate. Infection was performed with 90 μL of collected supernatant containing viral transducing particles in 1 mL medium including 8 µg/mL polybrene. 24 h post infection, stably transfected cells were selected with blasticidin at a concentration of 8 μg/mL referred to as stable HEK293A sensor cells.
(§4) Stable HEK293A sensor cells were maintained in complete growth medium (DMEM high Glucose+10% FCS+1% L-Glutamine+1% NEAA+1% NaPyr.) with passaging performed twice per week. […] GFP and RFP are read in the channels called FITC and PE, respectively.
(§5) Concentration response curves plotting relative reduction of the GFP signal (measured by flow cytometry) versus 10 compound concentrations (starting concentration 10 μM, 3 fold dilution steps) of the compounds allowed generation of DC50 values.
Background: In flow cytometry, cells or beads pass a laser one at a time.

The target of the next assay is CRBN (Homo sapiens, UniProt Q96SW2). Description: CRBN displacement assay Format 1 (fluorescence polarization, BodipyFL-lenalidomide probe Compound HH). Format: binding. The method, boiled down:
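Fluorescence polarization competition: CRBN (nominal 100 nM final) pre-incubated 45 min at room temperature with compound, then BodipyFL-lenalidomide probe added (5 nM final; 0.9% DMSO).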
For orientation: Fluorescence polarisation rises when a labelled molecule tumbles more slowly, as on binding a larger partner.

For the next assay, the target named is T2, EPHA4 (Homo sapiens, UniProt P54764).
T2 construct: EGFP (after a Leu that replaces the STOP codon); expressed in transfected cells; host or cells: HEK293A (Invitrogen R70507), lentiviral transduction
Kind of assay: EPHA4-GFP protein abundance flow cytometry assay in HEK293A. The note with it: for EPHA4 Amax: % protein remaining at the concentration of maximum degradation; for DC50: HEK293A EPHA4-GFP sensor cells, 24 h. Type of assay: cell-based. The protocol: as §1, §2, §3, §4, §5

T2 sequence (P54764 20-986, species assumed): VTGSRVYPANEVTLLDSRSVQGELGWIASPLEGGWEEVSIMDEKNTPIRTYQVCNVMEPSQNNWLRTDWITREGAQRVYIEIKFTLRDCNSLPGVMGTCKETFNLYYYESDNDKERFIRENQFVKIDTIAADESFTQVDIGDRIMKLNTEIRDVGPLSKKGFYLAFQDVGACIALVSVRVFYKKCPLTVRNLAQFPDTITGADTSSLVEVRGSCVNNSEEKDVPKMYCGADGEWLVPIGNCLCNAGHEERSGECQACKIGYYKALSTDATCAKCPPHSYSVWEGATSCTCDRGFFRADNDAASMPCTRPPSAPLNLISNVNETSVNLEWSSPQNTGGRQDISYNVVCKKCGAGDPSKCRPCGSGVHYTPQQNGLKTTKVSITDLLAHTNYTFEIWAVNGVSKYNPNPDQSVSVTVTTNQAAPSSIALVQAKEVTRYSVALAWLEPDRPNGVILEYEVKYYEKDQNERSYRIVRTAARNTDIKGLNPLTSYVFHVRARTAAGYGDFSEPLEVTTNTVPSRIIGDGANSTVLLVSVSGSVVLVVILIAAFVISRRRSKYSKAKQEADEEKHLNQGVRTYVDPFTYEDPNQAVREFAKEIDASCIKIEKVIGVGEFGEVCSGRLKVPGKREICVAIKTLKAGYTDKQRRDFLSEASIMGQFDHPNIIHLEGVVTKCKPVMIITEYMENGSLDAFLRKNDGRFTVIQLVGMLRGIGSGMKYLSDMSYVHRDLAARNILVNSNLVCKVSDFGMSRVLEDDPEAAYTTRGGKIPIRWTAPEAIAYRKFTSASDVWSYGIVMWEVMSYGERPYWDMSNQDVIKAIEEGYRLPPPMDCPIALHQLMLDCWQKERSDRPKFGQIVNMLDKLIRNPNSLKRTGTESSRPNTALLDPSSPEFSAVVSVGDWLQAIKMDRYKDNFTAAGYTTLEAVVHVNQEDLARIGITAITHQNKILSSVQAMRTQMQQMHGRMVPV
T1 sequence (P07947 whole entry, looked up): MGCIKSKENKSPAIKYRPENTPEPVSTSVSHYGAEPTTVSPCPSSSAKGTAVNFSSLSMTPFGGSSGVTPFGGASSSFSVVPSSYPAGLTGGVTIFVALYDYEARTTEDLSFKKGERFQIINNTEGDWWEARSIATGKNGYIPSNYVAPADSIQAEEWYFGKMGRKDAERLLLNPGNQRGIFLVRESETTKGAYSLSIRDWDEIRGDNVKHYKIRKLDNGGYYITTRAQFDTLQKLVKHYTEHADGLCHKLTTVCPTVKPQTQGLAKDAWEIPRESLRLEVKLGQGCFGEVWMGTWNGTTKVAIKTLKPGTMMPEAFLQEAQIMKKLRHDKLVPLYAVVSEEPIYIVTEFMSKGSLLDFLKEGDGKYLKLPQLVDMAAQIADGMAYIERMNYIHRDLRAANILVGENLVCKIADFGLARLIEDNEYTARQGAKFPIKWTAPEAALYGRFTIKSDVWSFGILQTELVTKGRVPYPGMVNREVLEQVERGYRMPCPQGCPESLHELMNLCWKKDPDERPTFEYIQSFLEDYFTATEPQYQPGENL
Sequence of CRBN (Q96SW2 whole entry): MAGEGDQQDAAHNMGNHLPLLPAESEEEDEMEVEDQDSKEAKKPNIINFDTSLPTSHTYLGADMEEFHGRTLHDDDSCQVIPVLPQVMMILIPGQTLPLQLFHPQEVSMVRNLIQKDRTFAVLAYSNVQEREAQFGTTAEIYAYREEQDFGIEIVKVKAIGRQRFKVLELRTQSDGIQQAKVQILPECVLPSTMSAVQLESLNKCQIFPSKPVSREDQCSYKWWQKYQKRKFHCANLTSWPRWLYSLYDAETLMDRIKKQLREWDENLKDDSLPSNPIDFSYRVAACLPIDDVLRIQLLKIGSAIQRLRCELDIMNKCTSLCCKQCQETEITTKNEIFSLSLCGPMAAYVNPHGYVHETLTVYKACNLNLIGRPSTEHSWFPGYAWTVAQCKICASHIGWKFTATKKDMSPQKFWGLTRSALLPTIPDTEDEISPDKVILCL

Turning to `COc1ccc(C(=O)N2CCC3(CCN(C(=O)CCCCCCCN4CCN(c5cc(Nc6ncc(C(=O)Nc7c(C)cccc7Cl)s6)nc(C)n5)CC4)CC3)CC2)cc1N1CCC(=O)NC1=O` [compound 06, N-(2-chloro-6-methylphenyl)-2-((6-(4-(8-(9-(3-(2,4-dioxotetrahydropyrimidin-1(2H)-yl)-4-methoxybenzoyl)-3,9-diazaspiro[5.5]undecan-3-yl)-8-oxooctyl)piperazin-1-yl)-2-methylpyrimidin-4-yl)amino)thiazole-5-carboxamide], on YES1, the “YES1 Amax” value came out at 4% and the DC50 came to 9 nM. At CRBN, this molecule showed an AC50 of 162 nM. Further, on EPHA4, the “EPHA4 Amax” value came to 9% and the DC50 was 4 nM.

Turning to `COc1ccc(C(=O)N2CCC3(CCN(C(=O)CN4CCN(c5cc(Nc6ncc(C(=O)Nc7c(C)cccc7Cl)s6)nc(C)n5)CC4)CC3)CC2)cc1N1CCC(=O)NC1=O` [compound 07, N-(2-chloro-6-methylphenyl)-2-((6-(4-(2-(9-(3-(2,4-dioxotetrahydropyrimidin-1(2H)-yl)-4-methoxybenzoyl)-3,9-diazaspiro[5.5]undecan-3-yl)-2-oxoethyl)piperazin-1-yl)-2-methylpyrimidin-4-yl)amino)thiazole-5-carboxamide], on YES1, the “YES1 Amax” value is listed as 11% and the DC50 was determined as 124 nM. This molecule also registered an AC50 at CRBN of 496 nM. On EPHA4, the “EPHA4 Amax” value is 9% and the DC50 amounted to 83 nM.

The term AC50 denotes the concentration giving half of the maximal activity seen. A lower AC50 goes with greater potency.
